Each block holds one molecule with its values, some of them ahead of it.
What was measured:
[1] = biological target: T1, hTRAAK (Homo sapiens, UniProt Q9NYG8); test: Whole cell configuration electrophysiology of hTRAAK current in transfected COS cells; type: cell-based
T1 construct: expressed in transfected cells; host or cells: COS-7 cells, transient DEAE-dextran transfection of pIRES-CD8.hTRAAK
T1 sequence (Q9NYG8 1-393): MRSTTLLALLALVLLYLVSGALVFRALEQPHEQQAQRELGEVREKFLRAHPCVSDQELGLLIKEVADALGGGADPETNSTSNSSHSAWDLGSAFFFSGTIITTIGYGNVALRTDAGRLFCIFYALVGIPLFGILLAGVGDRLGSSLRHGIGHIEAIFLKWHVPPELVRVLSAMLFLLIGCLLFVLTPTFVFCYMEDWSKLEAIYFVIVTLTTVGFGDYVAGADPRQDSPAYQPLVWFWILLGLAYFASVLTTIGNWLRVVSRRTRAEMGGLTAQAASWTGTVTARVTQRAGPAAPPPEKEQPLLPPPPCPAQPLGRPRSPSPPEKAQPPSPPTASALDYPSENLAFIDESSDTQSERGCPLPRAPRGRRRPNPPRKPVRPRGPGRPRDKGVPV
Procedure: Electrophysiological experiments were performed in COS cells transfected in a temporary manner.
It has been shown that certain members of the family of K^+ channels with two P domains (TREK-1 and TASK-1) are opened by volatile general anesthetics (Patel et al., 1999). We, therefore, also investigated the effect of chloroform on hTRAAK.
In fact, the opening of the channel is mediated by a deformation of the membrane (Maingret et al., 1999 (a); Patel et al., 1998).
The COS-7 cells were maintained in Eagle medium as modified by Dulbecco supplemented with 10% fetal calf's serum. The plasmid pIRES-cD8-hTRAAK was transfected using the conventional DEAE dextran procedure. The positive cells were visualized 48 h after transfection using the method of beads covered by the anti-CD8 antibody (Maingret et al., 1999 (a); Maingret et al., 1999 (b)).
For the experiments on whole cells and the outside-in experiments, the pipette solution (INT) contained 150 mM KCl, […], 5 mM EGTA and 10 mM HEPES, pH adjusted with KOH. The bath solution (EXT) contained 150 mM NaCl, 5 mM KCl, 3 mM MgCl2, 1 mM CaCl2 and 10 mM HEPES, pH 7.4 adjusted with NaOH. For the inside-out experiments, the solution in the pipette was EXT and the bath solution was INT. The EXT solution rich in K^+ contained 150 mM KCl in place of 150 mM NaCl. To study the selectivity of the ions, the relationships between the current and the voltage were obtained at different ext. K^+ concentrations. For each concentration, NaCl was replaced in the EXT solution by equimolar KCl.
All of the products were obtained from Sigma. The fatty acids were dissolved in ethanol at the concentration of 100 mM, put under argon and stored at […] for one week.

[2] = biological target: T1, hTRAAK; test: Excised patch (outside-out configuration) recording of hTRAAK in transfected COS cells; type: cell-based
Procedure: Under physiological conditions, the current induced by AA is outward rectifying and changes direction at […], n=7 (FIG. 5A). When the exterior Na^+ is replaced by K^+, the current becomes linear and the direction change potential is −0.6±0.8 mV, n=7 (FIG. 5B). hTRAAK is also activated by the polyunsaturated acid decosahexaenoate (10 μM, n=3), but is insensitive to the saturated fatty acids myristate, palmitate, stearate and arachinate (10 μM, n=6 to 8). […] The stimulation by AA of hTRAAK remains then when the patch is excised (FIG. 5C). The current induced by AA observed in an outside-out configuration is outward rectifying and changes direction at the reverse potential of K^+ (FIG. 5C, box). […] In fact, the opening of the channel is mediated by a deformation of the membrane (Maingret et al., 1999 (a); Patel et al., 1998). FIG. 5D illustrates the mechanical sensitivity of hTRAAK. In the reverse patch configuration, the activity of the channel is almost absent at atmospheric pressure. Application of negative pressure opens the channels in a dose-dependent manner.
The COS-7 cells were maintained in Eagle medium as modified by Dulbecco supplemented with 10% fetal calf's serum. The plasmid pIRES-cD8-hTRAAK was transfected using the conventional DEAE dextran procedure. […]

Compound: Nc1ccncc1 [4AP]
sensitivity of hTRAAK to K+ channel blocking agent ([1]; 3 mM, whole cell configuration): insensitive

Compound: CC[N+](CC)(CC)CC [TEA]
sensitivity of hTRAAK to K+ channel blocking agent ([1]; 10 mM, whole cell configuration): insensitive

stimulation of hTRAAK when the patch is excised [2]: remains | potentiation of human TRAAK activity ([1]; 10 μm, whole cell configuration, at 0 mV, n=19): 630±101% | reversibility of activation ([1]; by means of washing): completely reversible | direction change potential of the induced current ([1]; exterior Na+ replaced by K+, n=7): −0.6±0.8 mV | potential at which the induced current changes direction ([1]; physiological conditions, n=7): -80.6 ± 0.9 mV
Compound: CCCCC/C=C\C/C=C\C/C=C\C/C=C\CCCC(=O)O [arachidonic acid]

sensitivity of hTRAAK to saturated fatty acids ([1]; 10 μM, n=6 to 8): insensitive
Compound: CCCCCCCCCCCCCCCCCCCC(=O)O [arachinate]

Compound: [Ba+2] [barium]
sensitivity of hTRAAK to K+ channel blocking agent ([1]; 1 mM, whole cell configuration): insensitive

Compound: ClC(Cl)Cl [chloroform]
effect on the channel's activity ([1]; 0.8 mM, n=8): no effect

activation of hTRAAK by polyunsaturated fatty acid ([1]; 10 μM, n=3): activated
Compound: CC/C=C\C/C=C\C/C=C\C/C=C\C/C=C\C/C=C\CCC(=O)O [decosahexaenoate]

sensitivity of hTRAAK to K+ channel blocking agent ([1]; 10 μM, whole cell configuration): insensitive
Compound: COc1ccc(Cl)cc1C(=O)NCCc1ccc(S(=O)(=O)NC(=O)NC2CCCCC2)cc1 [glibenclamide]

sensitivity of hTRAAK to K+ channel blocking agent ([1]; 100 μm, whole cell configuration): insensitive
Compound: C=C[C@H]1C[N@@]2CC[C@H]1C[C@@H]2[C@@H](O)c1ccnc2ccc(OC)cc12 [quinidine]

activation of hTRAAK ([1]; no concentration or data printed): activated
Compound: Nc1nc2ccc(OC(F)(F)F)cc2s1 [riluzole]

Reference: US20030049697A1, “Family of mechanosensitive human potassium channels activated by polyunsaturated fatty acids and their use” (CENTRE NATIONAL DE LA RECHERCHE SCIENTIFIQUE, C.N.R.S., priority 2000, published 2003)
